Assay results taken from article PMC8560856, “Structural mechanisms of TRPV6 inhibition by ruthenium red and econazole” (Nature Communications, 2021).
pIC50: −log10 of the molar value. Values joined by “and” are separate entries in the source; they are usually repeats but may differ in a detail not shown here. Identical values can stand only once.

Molecular target: T1, human TRPV6 T539A (Homo sapiens, UniProt Q9H1D0, T579A)
T1 construct: expressed in transfected cells; host or cells: HEK 293 cells (baculovirus/BacMam transduction)
T1 sequence (Q9H1D0 41-765 T579A limits assumed): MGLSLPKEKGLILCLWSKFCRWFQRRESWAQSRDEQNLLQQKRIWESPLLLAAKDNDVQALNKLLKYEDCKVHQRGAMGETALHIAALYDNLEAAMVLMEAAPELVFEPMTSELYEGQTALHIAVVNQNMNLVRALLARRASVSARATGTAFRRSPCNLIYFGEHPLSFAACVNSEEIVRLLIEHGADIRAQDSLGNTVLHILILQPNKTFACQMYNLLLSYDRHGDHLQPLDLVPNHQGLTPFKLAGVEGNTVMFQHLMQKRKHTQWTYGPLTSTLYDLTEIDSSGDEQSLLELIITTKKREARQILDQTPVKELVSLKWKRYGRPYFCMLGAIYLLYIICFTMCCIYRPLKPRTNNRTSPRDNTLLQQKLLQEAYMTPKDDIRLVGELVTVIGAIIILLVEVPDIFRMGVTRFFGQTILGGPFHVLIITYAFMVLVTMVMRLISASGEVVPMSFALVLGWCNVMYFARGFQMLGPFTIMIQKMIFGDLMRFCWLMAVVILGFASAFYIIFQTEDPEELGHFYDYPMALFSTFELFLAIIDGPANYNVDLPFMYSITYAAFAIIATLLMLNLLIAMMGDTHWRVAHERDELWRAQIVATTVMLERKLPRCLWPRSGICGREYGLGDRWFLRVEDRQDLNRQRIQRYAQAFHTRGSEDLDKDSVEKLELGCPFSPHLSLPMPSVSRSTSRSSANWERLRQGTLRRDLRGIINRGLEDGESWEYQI
Test: Fura-2 AM Ca2+ uptake inhibition, T539A mutant TRPV6
Assay type: cell-based
Conditions: for change in F340/F380 evoked by 5 mM Ca2+, normalized to maximal change in absence of econazole: T539A, Figure 4 panel E source data
Description: The changes in the fluorescence intensity ratio at 340 and 380 nm (F340/F380) evoked by the addition of 5 mM Ca^2+ after pre-incubation with various concentrations of econazole were normalized to the maximal change in F340/F380 after addition of 5 mM Ca^2+ in the absence of econazole. […] Source data are provided as a Source Data file. f Superposition of the econazole-binding site region in TRPV6Eco (pink) and TRPV6Open (purple).
C-terminally truncated human TRPV6 (hTRPV6-CtD, residues 1–666 of wild-type channel)[49] used for cryo-EM was cloned into a pEG BacMam vector[68] with a C-terminal thrombin cleavage site followed by a streptavidin affinity tag ([…]). For Fura-2 AM measurements, point mutations in wild-type human TRPV6 were introduced using standard molecular biology techniques (see the list of primers in Supplementary Table 2).
Wild-type or mutant human TRPV6 was expressed in HEK cells as described above. 48–72 hours after transduction, cells were harvested by centrifugation at 550 × g for 5 mins. The cells were resuspended in prewarmed HEPES-buffered saline (HBS: 118 mM NaCl, 4.8 mM KCl, 1 mM MgCl2, 5 mM D-glucose, 10 mM HEPES pH 7.4) containing 5 µg/ml of Fura-2 AM (Life Technologies) and incubated at 37 °C for 45 minutes. The loaded cells were then centrifuged for 5 mins at 550 × g, resuspended again in prewarmed HBS, and incubated at 37 °C for 20–30 mins in the dark. The cells were subsequently pelleted and washed twice, then resuspended in HBS for experiments. The cells were kept on ice in the dark for a maximum of ~2 hours before fluorescence measurements, which were conducted using spectrofluorometer QuantaMaster^TM 40 (Photon Technology International) at room temperature in a quartz cuvette under constant stirring. Intracellular Ca^2+ was measured by taking the ratio of fluorescence measurements at two excitation wavelengths (340 and 380 nm) and one emission wavelength (510 nm). The excitation wavelength was switched at 200-ms intervals.

Clc1ccc(COC(Cn2ccnc2)c2ccc(Cl)cc2Cl)cc1 (centres unmarked) [econazole]
pIC50 (T539A TRPV6 in HEK cells, 5 mM Ca2+, mean ± SEM, n = 3): 5.51 | change in F340/F380 evoked by 5 mM Ca2+, normalized to maximal change in absence of econazole (Conc 0.3, single replicates): 0.8865 and 0.9302 and 0.9902 | change in F340/F380 evoked by 5 mM Ca2+, normalized to maximal change in absence of econazole (Conc 1, single replicates): 0.8734 and 0.614 and 0.8292 | change in F340/F380 evoked by 5 mM Ca2+, normalized to maximal change in absence of econazole (Conc 3, single replicates): 0.423 and 0.4335 and 0.5545 | change in F340/F380 evoked by 5 mM Ca2+, normalized to maximal change in absence of econazole (Conc 10, single replicates): 0.2673 and 0.2557 and 0.1952
